From article PMC10999543, “Identification of kinase modulators as host-directed therapeutics against intracellular methicillin-resistant Staphylococcus aureus” (Frontiers in Cellular and Infection Microbiology, 2024)
Where two headings read alike, the source gives them in different places.

What was measured:
HeLa cells = assay: Compound screen by flow cytometry: HeLa cell count as surrogate readout of cell viability (z-scoreHeLa); format: cell-based, human; settings: for cell count rep 1 / z-scoreHeLa rep 1: replicate 1; for cell count rep 2 / z-scoreHeLa rep 2: replicate 2; for cell count rep 3 / z-scoreHeLa rep 3: replicate 3; for z-scoreHeLa mean: mean of 3 replicates
In short: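 HeLa cells were infected with GFP-MRSA (mean MOI 6.8 ± 4.6) for 1 h, and extracellular bacteria were killed with 30 µg/ml gentamicin. Cells were then incubated overnight with kinase inhibitors in 5 µg/ml gentamicin, in triplicate against DMSO controls. Flow-cytometric cell count served as a viability surrogate, expressed as a plate z-score.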

intracellular MRSA = format: cell-based, Staphylococcus aureus; settings: for %GFP+ rep 1 / z-scoreMRSA+ rep 1: replicate 1; for %GFP+ rep 2 / z-scoreMRSA+ rep 2: replicate 2; for %GFP+ rep 3 / z-scoreMRSA+ rep 3: replicate 3; for z-scoreMRSA+ mean: mean of 3 replicates
In short: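 HeLa, MRSA-GFP at MOI ~6.8, 1 h infection; gentamicin 30 µg/ml for 15 min; inhibitor plus gentamicin 5 µg/ml overnight, 37°C/5% CO2; triplicate plates; FACS %GFP+ and cell count; hit = z ≤ -2 MRSA+, z ≥ -3 count.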

[1] = PKIS compound screen raw data, HeLa cell count
[2] = PKIS compound screen, HeLa cell count
[3] = PKIS compound screen, Yes/No call
[4] = PKIS compound screen, Yes/No call on z-scoreHeLa
[5] = PKIS compounds raw data, HeLa cell count
[6] = PKIS compound screen raw data, MRSA-infected HeLa cells
[7] = PKIS compound screen, MRSA-infected HeLa cells
[8] = PKIS compound screen, Yes/No call (effect without cell death)
[9] = PKIS compound screen, Yes/No call on z-scoreMRSA+
[10] = PKIS compounds raw data, MRSA-infected HeLa cells
[11] = compound screen, HeLa cell count
[12] = compound screen, MRSA-infected HeLa cells

SMILES | cell count rep 1 (HeLa cells; [1]) | cell count rep 2 (HeLa cells; [1]) | cell count rep 3 (HeLa cells; [1]) | z-scoreHeLa mean (HeLa cells; [2]) | z-scoreHeLa rep 1 (HeLa cells; [2]) | z-scoreHeLa rep 2 (HeLa cells; [2]) | z-scoreHeLa rep 3 (HeLa cells; [2]) | cell death (HeLa cells; [3]) | cell death (HeLa cells; [4]) | z-scoreHeLa mean (HeLa cells; PKIS compound screen) | z-scoreHeLa rep 1 (HeLa cells; PKIS compound screen) | %GFP+ rep 1 (intracellular MRSA; [6]) [%] | %GFP+ rep 2 (intracellular MRSA; [6]) [%] | %GFP+ rep 3 (intracellular MRSA; [6]) [%] | z-scoreMRSA+ mean (intracellular MRSA; [7]) | z-scoreMRSA+ rep 1 (intracellular MRSA; [7]) | z-scoreMRSA+ rep 2 (intracellular MRSA; [7]) | z-scoreMRSA+ rep 3 (intracellular MRSA; [7]) | hit (intracellular MRSA; [8]) | effect (intracellular MRSA; [9]) | also measured
COc1ccc(Nc2nccc(N3CCC(NC(=O)Nc4cccc(OC)c4)C3)n2)cc1 (centres unmarked) [GSK1379742A] | 25651 | 33132 | 39377 | 0.12 | 0.84 | -0.31 | -0.18 | No | No | 1.53 | 1.56 | 17.9 | 19.2 | 19.1 | 0.00235 | 0.0133 | 0.20 | -0.21 | No | No | z-scoreHeLa rep 2 (HeLa cells; PKIS compound screen): 0.68; z-scoreHeLa rep 3 (HeLa cells; PKIS compound screen): 2.36; cell count rep 1 (HeLa cells; [5]): 8641; cell count rep 2 (HeLa cells; [5]): 7027; cell count rep 3 (HeLa cells; [5]): 9326; effect (intracellular MRSA; [3]): No; z-scoreMRSA+ mean (intracellular MRSA; PKIS compound screen): 0.33; z-scoreMRSA+ rep 1 (intracellular MRSA; PKIS compound screen): -0.05; z-scoreMRSA+ rep 2 (intracellular MRSA; PKIS compound screen): 0.88; z-scoreMRSA+ rep 3 (intracellular MRSA; PKIS compound screen): 0.15; %GFP+ rep 1 (intracellular MRSA; [10]): 26.8%; %GFP+ rep 2 (intracellular MRSA; [10]): 30.6%; %GFP+ rep 3 (intracellular MRSA; [10]): 28.1%
COC(=O)c1cccc(NC(=O)NC2CCN(c3ccnc(Nc4ccc(OC)cc4)n3)C2)c1 (centres unmarked) [GSK1379746A] | 24857 | 18367 | 14326 | -0.99 | -0.90 | -1.18 | -0.90 | No | No | -0.86 | -1.12 | 19.0 | 17.4 | 21.2 | -0.17 | 0.06 | -0.55 | -0.01 | No | No | z-scoreHeLa rep 2 (HeLa cells; PKIS compound screen): -1.01; z-scoreHeLa rep 3 (HeLa cells; PKIS compound screen): -0.44; cell count rep 1 (HeLa cells; [5]): 4181; cell count rep 2 (HeLa cells; [5]): 4486; cell count rep 3 (HeLa cells; [5]): 4898; effect (intracellular MRSA; [3]): No; z-scoreMRSA+ mean (intracellular MRSA; PKIS compound screen): -0.13; z-scoreMRSA+ rep 1 (intracellular MRSA; PKIS compound screen): -0.05; z-scoreMRSA+ rep 2 (intracellular MRSA; PKIS compound screen): -0.0265; z-scoreMRSA+ rep 3 (intracellular MRSA; PKIS compound screen): -0.31; %GFP+ rep 1 (intracellular MRSA; [10]): 26.8%; %GFP+ rep 2 (intracellular MRSA; [10]): 25.9%; %GFP+ rep 3 (intracellular MRSA; [10]): 25.6%
COc1ccc(CNC(=O)NC2CCN(c3ccnc(Nc4cc(OC)c(OC)c(OC)c4)n3)C2)cc1 (centres unmarked) [GSK1379748A] | 5560 | 4556 | 5664 |  |  |  |  |  |  |  |  | 25.5 | 23.4 | 23.0 |  |  |  |  |  |  | cell death (HeLa cells; Yes/No call from z-scoreHeLa): No; z-scoreHeLa mean (HeLa cells; [11]): 0.45; z-scoreHeLa rep 1 (HeLa cells; [11]): 0.87; z-scoreHeLa rep 2 (HeLa cells; [11]): 0.20; z-scoreHeLa rep 3 (HeLa cells; [11]): 0.27; effect (intracellular MRSA; Yes/No call from z-scoreMRSA+): No; hit (intracellular MRSA; Yes/No: effect without cell death): No; z-scoreMRSA+ mean (intracellular MRSA; [12]): 0.16; z-scoreMRSA+ rep 1 (intracellular MRSA; [12]): 0.05; z-scoreMRSA+ rep 2 (intracellular MRSA; [12]): 0.19; z-scoreMRSA+ rep 3 (intracellular MRSA; [12]): 0.24
COc1cc(Nc2nccc(N3CCC(NC(=O)Nc4cccc(C(C)=O)c4)C3)n2)cc(OC)c1OC (centres unmarked) [GSK1379753A] | 28035 | 28667 | 17453 | -0.0237 | -0.37 | 0.58 | -0.29 |  | No |  |  | 19.3 | 19.5 | 18.4 | -0.20 | 0.14 | 0.025 | -0.77 | No | No | 
COc1cc(Nc2nccc(N3CCC(NC(=O)C(C)c4ccc(Cl)cc4)C3)n2)cc(OC)c1OC (centres unmarked) [GSK1379757A] | 34106 | 27085 | 22729 | 0.57 | 0.66 | 0.31 | 0.74 | No | No | 0.21 | 0.06 | 24.2 | 23.0 | 24.9 | 1.14 | 1.45 | 0.98 | 1.00 | No | No | z-scoreHeLa rep 2 (HeLa cells; PKIS compound screen): 0.29; z-scoreHeLa rep 3 (HeLa cells; PKIS compound screen): 0.29; cell count rep 1 (HeLa cells; [5]): 6143; cell count rep 2 (HeLa cells; [5]): 6440; cell count rep 3 (HeLa cells; [5]): 6051; effect (intracellular MRSA; [3]): No; z-scoreMRSA+ mean (intracellular MRSA; PKIS compound screen): 0.73; z-scoreMRSA+ rep 1 (intracellular MRSA; PKIS compound screen): 0.77; z-scoreMRSA+ rep 2 (intracellular MRSA; PKIS compound screen): 0.76; z-scoreMRSA+ rep 3 (intracellular MRSA; PKIS compound screen): 0.65; %GFP+ rep 1 (intracellular MRSA; [10]): 31.0%; %GFP+ rep 2 (intracellular MRSA; [10]): 30.0%; %GFP+ rep 3 (intracellular MRSA; [10]): 30.8%
COc1cc(Nc2nccc(N3CCC(NC(=O)c4cc5ccccc5s4)C3)n2)cc(OC)c1OC (centres unmarked) [GSK1379760A] | 31010 | 36298 | 43524 | 0.80 | 1.65 | 0.28 | 0.48 |  | No |  |  | 16.3 | 17.7 | 19.1 | -0.32 | -0.49 | -0.25 | -0.21 | No | No | 
COc1cccc(NC(=O)NC2CCN(c3ccnc(Nc4cc(OC)c(OC)c(OC)c4)n3)C2)c1 (centres unmarked) [GSK1379763A] | 25281 | 24740 | 24420 | 0.05 | -0.83 | -0.09 | 1.07 |  | No |  |  | 13.0 | 15.3 | 16.3 | -1.34 | -1.54 | -1.12 | -1.35 | No | No | 
